Read-outs that look alike come from different tables or passages of the source.

The nature of series [1]: Plasma concentrations of vanoxerine and its hydroxyl metabolites in patients after a 300 mg dose of vanoxerine (LC-MS/MS). The note with it: 300 mg vanoxerine; for Concentrations (plasma), average: all 25 patients; for High concentration group average (plasma concentration): high concentration group (10 patients); for Low concentration group average (plasma concentration): low concentration group (15 patients). Type of series: in vivo, human. How it is done:
Each patient gave blood samples before administration of their dose, and then again at nine further time points, 30 minutes after admiration, 1, 2, 3, 4, 6, 8, 12, and 24 hours post administration.
Samples: A total of 270 human plasma samples were received (in duplicate). The samples were shipped frozen over dry ice. The samples were stored at −70° C. (nominal) until analysis.
Frozen samples were thawed at room temperature. Samples, calibrators, QC samples, sample blanks (blank plasma) and reagent blanks (water) were processed at room temperature. To 200 μL aliquots of each sample, calibrator, and QC sample are added 20 μL of 500 ng/mL of internal standard solution. A sample blank (blank plasma) and reagent blank (water) were also prepared, but without addition of internal standard solution (20 μL of diluent was added instead). To each sample, 200 μL of 1% ammonium hydroxide solution were added and vortex mixed. 3.0 mL of methyl tert-butyl ether were added and then vortex mix for 30 seconds. The sample is then centrifuged for 5 minutes at 4000 rpm and then transferred for about 30 minutes at −70° C. (nominal). The upper (organic) layer was transferred into an evaporation tubes and then evaporated under N2 stream at ˜50° C. for about 20 min. Samples were then reconstituted in 1000 μL reconstitution solution (80:20:0.1 water: acetonitrile: formic acid). Samples were mixed, allow to stand for about 3 minutes and mixed again. 900 μL of the sample solution was transferred to a 1.5 mL microcentrifuge tube and centrifuged for 5 minutes at 14000 rpm at room temperature. 800 μL of the sample solution was transferred to a glass autosampler vial, and then transferred to the autosampler for analysis. Samples were separated using reversed-phase liquid chromatography with a C18 column.
Detection was based on electro-spray interface in positive mode (ESI+) LC-MS/MS technique, using Micromass Quattro Premier XE MS/MS detector with MassLynx and QuanLynx software version 4.1. […] The MRM transition for all hydroxyl metabolites was m/z 467→203.

For series [2] the following is noted: healthy subjects, cited from earlier work.
The mark [3] stands for this setting: 1 h post administration, 1.00 = below LLOQ.
Where [4] appears, read: 2 h post administration, 1.00 = below LLOQ.
Setting [5] is: 3 h post administration, 1.00 = below LLOQ.
The mark [6] stands for this setting: 4 h post administration, 1.00 = below LLOQ.
Where [7] appears, read: 6 h post administration, 1.00 = below LLOQ.
Setting [8] is: 8 h post administration, 1.00 = below LLOQ.
[9] abbreviates: 12 h post administration, 1.00 = below LLOQ.
The mark [10] stands for this setting: 24 h post administration, 1.00 = below LLOQ.
[11] abbreviates: .5 h post administration, 1.00 = below LLOQ.
[12] abbreviates: time -15 (before administration), 1.00 = below LLOQ.

As to 16-hydroxyl vanoxerine [M02], the “Concentrations (plasma), average” value in series [1] (setting [3]) was 1.02 ng/mL; in series [1] (setting [4]), 1.02 ng/mL; in series [1] (setting [5]), 1.01 ng/mL; in series [1] (setting [6]), 1.01 ng/mL; in series [1] (setting [7]) it was 1.00 ng/mL; in series [1] (setting [8]) it was 1.00 ng/mL. For the same compound, the “Concentrations (plasma), average” value in series [1] (setting [9]), in series [1] (setting [10]), in series [1] (setting [11]) and in series [1] (setting [12]) was 1.00 ng/mL throughout. The “High concentration group average (plasma concentration)” value (from here on “High concentration group average”) is 1.00 ng/mL in series [1] (setting [3]); 1.05 ng/mL in series [1] (setting [4]); 1.03 ng/mL in series [1] (setting [5]); 1.02 ng/mL in series [1] (setting [6]); 1.00 ng/mL in series [1] (setting [7]); 1.00 ng/mL in series [1] (setting [8]). The “High concentration group average” value in series [1] (setting [9]) stood at 1.00 ng/mL; in series [1] (24 h post administration) it was 0.00 ng/mL; in series [1] (setting [11]), 1.00 ng/mL; in series [1] (setting [12]), 1.00 ng/mL. For the same compound, the “Low concentration group average (plasma concentration)” value (shortened to “Low concentration group average”) is 1.03 ng/mL in series [1] (setting [3]); 1.00 ng/mL in series [1] (setting [4]); 1.00 ng/mL in series [1] (setting [5]); 1.00 ng/mL in series [1] (setting [6]); 1.00 ng/mL in series [1] (setting [7]); 1.00 ng/mL in series [1] (setting [8]). Further, the “Low concentration group average” value in series [1] (setting [9]), in series [1] (setting [10]), in series [1] (setting [11]) and in series [1] (setting [12]) was 1.00 ng/mL in each case.
With 17-hydroxyl vanoxerine [M01], the “Concentrations (plasma), average” value was found to be 7.51 ng/mL in series [1] (setting [3]); 19.65 ng/mL in series [1] (setting [4]); 18.68 ng/mL in series [1] (setting [5]); 16.42 ng/mL in series [1] (setting [6]); 11.48 ng/mL in series [1] (setting [7]); 8.98 ng/mL in series [1] (setting [8]). The “Concentrations (plasma), average” value in series [1] (setting [9]) was found to be 6.30 ng/mL; in series [1] (setting [10]), 3.66 ng/mL; in series [1] (setting [11]), 1.93 ng/mL; in series [1] (setting [12]), 1.00 ng/mL. In addition, the “High concentration group average” value in series [1] (setting [3]) came to 8.64 ng/mL; in series [1] (setting [4]), 28.00 ng/mL; in series [1] (setting [5]) it was 29.64 ng/mL; in series [1] (setting [6]), 24.93 ng/mL; in series [1] (setting [7]), 18.08 ng/mL; in series [1] (setting [8]) it was 14.50 ng/mL. Moreover, the “High concentration group average” value in series [1] (setting [9]) is 9.98 ng/mL; in series [1] (24 h post administration) it was 1.72 ng/mL; in series [1] (setting [11]), 2.55 ng/mL; in series [1] (setting [12]) it was 1.00 ng/mL. Besides, the “Low concentration group average” value in series [1] (setting [3]) turned out to be 6.76 ng/mL; in series [1] (setting [4]) it was 14.09 ng/mL; in series [1] (setting [5]), 11.38 ng/mL; in series [1] (setting [6]), 10.34 ng/mL; in series [1] (setting [7]) it was 7.08 ng/mL; in series [1] (setting [8]) it was 5.30 ng/mL. Besides, the “Low concentration group average” value in series [1] (setting [9]) came to 3.67 ng/mL; in series [1] (setting [10]), 2.66 ng/mL; in series [1] (setting [11]), 1.52 ng/mL; in series [1] (setting [12]) it was 1.00 ng/mL.
On to `Fc1ccc(C(OCCN2CCN(CCCc3ccccc3)CC2)c2ccc(F)cc2)cc1` [Vanoxerine, 1-[2-[bis(4-fluorophenyl)methoxy]ethyl]-4-(3-phenylpropyl)piperazine], for which the side-effects entry is “no side-effects should be expected” in series [2] (daily repetitive dose of 50 mg); “some effects were seen with regard to concentration difficulties, increase systolic blood pressure, asthenia, and a feeling of drug influence” in series [2] (higher doses of vanoxerine).
